US6569631B1, “Microplate thermal shift assay for ligand development using 5-(4″dimethylaminophenyl)-2-(4′-phenyl)oxazole derivative fluorescent dyes” (3-Dimensional Pharmaceuticals, Inc., priority 1998, dated 2003)
Read-outs that look alike come from different tables or passages of the source. Values belong to the compound of their own block, whether it stands above or below them. Ends that are not written are not given here.

Key:
[1] = target: T1, chicken muscle pyruvate kinase (Gallus gallus, UniProt P00548); experiment: Fluorescence signal of reporter dyes on thermal unfolding of pyruvate kinase; settings: wavelengths above 480 nm; excitation 370 nm
T1 construct: purchased Sigma Chemical Co. P6406
T1 sequence (P00548 whole entry): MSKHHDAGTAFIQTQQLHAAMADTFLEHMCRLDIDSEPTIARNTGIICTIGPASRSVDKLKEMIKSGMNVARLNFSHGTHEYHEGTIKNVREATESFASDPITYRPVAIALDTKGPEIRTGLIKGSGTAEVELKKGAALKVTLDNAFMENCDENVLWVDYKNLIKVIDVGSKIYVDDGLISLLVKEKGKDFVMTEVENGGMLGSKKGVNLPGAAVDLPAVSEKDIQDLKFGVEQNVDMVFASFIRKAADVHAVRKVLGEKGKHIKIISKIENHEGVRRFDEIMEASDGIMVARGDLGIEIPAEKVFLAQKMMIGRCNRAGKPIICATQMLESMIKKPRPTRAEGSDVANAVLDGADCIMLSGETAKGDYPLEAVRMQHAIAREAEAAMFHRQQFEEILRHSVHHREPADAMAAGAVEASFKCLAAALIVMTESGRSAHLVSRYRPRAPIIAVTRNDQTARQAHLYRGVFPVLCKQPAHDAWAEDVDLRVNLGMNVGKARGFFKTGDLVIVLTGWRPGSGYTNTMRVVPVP
Experimental: A 0.2 mg/mL solution of chicken muscle pyruvate kinase (Sigma Chemical Co., catalog # P6406) was incubated with either 10 mM 1-anilinonaph-thalene-8-sulfonate (1,8-ANS) (FIG. 44, open squares) or 10 mM 5-(4″-dimethylaminophenyl)-2-(4′-phenyl)oxazole sulfonate (Molecular Probes catalogue no. D-12800) (FIG. 44, closed squares) in a 500 μL four-sided quartz cuvette. Fluorescence spectra were recorded using a spectrofluorimeter (Florolog, SPEX/ISA), with the excitation monochromator set to 370 nm, and the excitation and emission bandpass slit widths set at 1 nm, The instrument was operated in front-face collection mode, so that fluorescence was collected from the same face of the cuvette that was illuminated by the exciting light source. Emission spectra of native protein+dye were recorded after mixing the protein and dye solutions at room temperature. Emission spectra of denatured protein and fluorescence dye were recorded after the protein/dye solutions were heated to 75° C. for 2 minutes, and then cooled to room temperature immediately prior to data collection. The spectra shown in FIG. 44 are difference spectra that were calculated by subtracting the native protein fluorescence from the denatured protein fluorescence for each dye at 25° C. […]

thrombin [2] = target: T2, thrombin (Homo sapiens, UniProt P00734); experiment: Fluorescence signal of reporter dyes in 384-well thermal unfolding of thrombin; parameters: A stock human α-thrombin solution (1.56 mg/mL) from Enzyme Research Labs; purchased Enzyme Research Labs; settings: 100 μM dye; 1 μM thrombin; 500+/−25 nm bandpass filter
Experimental: A 1 μM thrombin solution was mixed with 5-(4″-dimethylaminophenyl)-2-(4′-phenyl)oxazole sulfonate dye to yield a final concentration of 100 μM 5-(4″-dimethylaminophenyl)-2-(4′-phenyl)oxazole sulfonate. This solution was pipetted into all the wells of a 384-well black thermocycler plate with a final volume of 4 μL per well, and 3 μL of mineral oil was then added to each well. The fluorescence signal from each well was recorded in a closed, black-walld metal box using a cooled CCD camera (SenSys, Photometrix, Inc.) equipped with a 500+/−25 nm bandpass filter. An identical experiment was performed separately, using the same instrument, camera, and filters, except that a final concentration of 100 μM 1,8-ANS was used in place of 5-(4″-dimethylaminophenyl)-2-(4′-phenyl)oxazole sulfonate as the reporter dye.
The ratio of signals from 5-(4″-dimethylaminophenyl)-2-(4′-phenyl)oxazole sulfonate and 1,8-ANS was calculated by averaging the signals of all 384 wells on each plate, and dividing the average signal from 1,8-ANS into that for 5-(4″-dimethylaminophenyl)-2-(4′-phenyl)oxazole sulfonate.

human α-thrombin = target: T3, human α-thrombin (Homo sapiens, UniProt P00734); experiment: Microplate thermal shift screen of biochemical conditions, thrombin stability; settings: NaCl concentration increased from 0 to 0.5 M
T3 construct: A stock human α-thrombin solution (1.56 mg/mL) from Enzyme Research Labs; purchased Enzyme Research Labs
Experimental: The microplate thermal shift assay was used, with four different fluorophores, to simultaneously screen the effects of multiple pH values, sodium chloride concentrations, and reduction-oxidation compounds on human α-thrombin stability. Thrombin solution was diluted to 1 μM in 50 mM Hepes, pH 7.5, NaCl at either 0.1 M or 0.5 M, 10 mM EDTA, 10 mM CaCl2, 10 mM dithiothreitol, […], and 100 μM 1,8-ANS, 10% (v/v) glycerol, or 0.1% (w/v) polyethylene glycol (PEG) 6000. Reaction volume was 100 μL.
Using equation (1), it is possible to estimate the NaCl binding to be ˜6 mM near the Tm (53° C.) in 50 mM Hepes pH 8.0 buffer (zero and 0.10 M NaCl).

D(II) FGF receptor 1 = experiment: Microplate thermal shift screen of biochemical conditions, D(II) FGF receptor 1 stability; parameters: species or system human; settings: NaCl concentration increased from 0.1 to 0.5 M
Experimental: The microplate thermal shift assay was used to simultaneously screen the effects of multiple biochemical conditions on D(II) FGF receptor 1 stability. The assays were performed by mixing 1 μL of D(II) FGFR1 (from a 500 μM concentrated stock in 50 mM HEPES pH 7.5) with 4 μL of each biochemical condition in wells of a 96-well polycarbonate microtiter plate. Final protein concentration after mixing was 100 μM and final 1,8-ANS concentration was 200 μM. Biochemical conditions were tested as follows: The pH's tested were 5 (Na acetate), 6 (MES), 7 (MOPS), 8 (HEPES), and 9 (CHES), with final buffer concentrations of 50 mM.
The salt concentrations tested were 0.1 or 0.5 M NaCl. Additives were tested in 50 mM MOPS, pH 7, 0.1 M NaCl, at final concentrations of 1 mM (EDTA, dithiothreitol), 10 mM (CaCl2, MgCl2, MgSO4, NiSO4),50 mM (arginine), 100 mM ((NH4)2SO4, LiSO4, Na2SO4, ZnSO4), 5% w/v (polyethylene glycol 6000), and 10% v/v glycerol.
Thermal denaturation profiles were generated as previously described for thrombin, aFGF, Factor D, and Factor Xa, by incremental heating of the microplate followed by a fluorescence reading after each temperature increase. Data were analyzed by non-linear least squares fitting as described previously.

thrombin [3] = target: T2, thrombin; settings: 5 mM Tris buffer pH 8.0, 0.1% PEG, 25° C.; read-out: Kd of the Na+ binding site; cited from earlier work
[4] = target: T4, acidic fibroblast growth factor (aFGF) (Homo sapiens, UniProt P05230); experiment: Microplate thermal shift assay for ligands binding to aFGF, turbidity signal; settings: for ΔTm: relative to aFGF alone (317.15 °K); for Tm: turbidity signal, aFGF 0.25 mg/mL, ligand 47-200 μM
T4 construct: host or cells: E. coli
T4 sequence (P05230 whole entry, species assumed): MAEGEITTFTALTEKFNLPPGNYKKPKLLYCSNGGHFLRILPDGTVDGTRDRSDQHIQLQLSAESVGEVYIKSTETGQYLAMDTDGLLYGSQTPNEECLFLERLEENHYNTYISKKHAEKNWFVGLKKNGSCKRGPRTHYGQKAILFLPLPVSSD
Text: The second therapeutic receptor tested in the microplate thermal shift assay was acidic fibroblast growth factor (aFGF), a growth factor that plays a key role in angiogenesis (Folkman, J. et al., J. Biol. Chem. 267:1.0931-10934 (1992)). A synthetic gene for this protein was purchased from R&D Systems (Minneapolis, Minn.), and was cloned and expressed in E. coli using methods similar to those described for basic fibroblast growth factor (bFGF) (Thompson, L. D. et al., Biochemistry 33:3831-3840 (1994); Pantoliano, M. W. et al., Biochemistry 33:10229-10248 (1994); Springer, B. A. et al., J. Biol. Chem. 269:26879-26884 (1994)). Recombinant aFGF was then purified by heparin-sepharose affinity chromatography as described (Thompson, L. D. et al., Biochemistry 33:3831-3840 (1994)). aFGF is also known to bind heparin/heparan, which is a cofactor for mitogenic activity. […] A microplate thermal assay of these compounds was set up in a way similar to that described above for human α-thrombin. […] The affinity constants covered a fairly broad range of binding affinities, with pentosan PSO4 showing the highest affinity.

[5] = target: T5, heparin binding site of human α-thrombin (Homo sapiens, UniProt P00734); experiment: Microplate thermal shift assay, ligands binding to the heparin binding site, turbidity signal
T5 construct: A stock human α-thrombin solution (1.56 mg/mL) from Enzyme Research Labs; purchased Enzyme Research Labs
Text: Assays for ligands that bind to the heparin binding site of human α-thrombin are more difficult to perform than assays for ligands that bind to the active site of human α-thrombin. At the heparin binding site, no substrate is hydrolyzed, so no spectrophotometric signal can be amplified for instrumental detection. Heparin activity is usually estimated in biological clotting time assays. […] Thus, heparin binding to human α-thrombin represents the kind of challenge encountered with the vast majority of non-enzyme receptor/ligand binding events, which are commonly observed for hormone/receptor interactions, repressor/DNA interactions, neurotransmitter/receptor interactions, etc. Several heparin-like sulfated oligosaccharides and sulfated naphthalene compounds were assayed by the microplate thermal shift assay. Using the thermal shift assay, it was possible to use a single compound per well to quickly rank the compounds in order of increasing binding affinity, with Kd's ranging over three orders of magnitude (see Table 4). Like the experiment in Example 1, the thermal shift assay results agreed closely with the results obtained through an alternative method, which required a series of laborious (15 to 20 single determinations) fluorescence quench assays over a wide range of concentrations of low MW heparin (Olson, S. T. et al., J. Biol. Chem. 266:6342-6352 (1991)).

D(II) FGFR1 = target: T6, D(II) FGFR1 (Homo sapiens, UniProt P11362); experiment: Miniaturized (10 μL) microplate thermal shift assay of D(II) FGFR1; assay type: binding; settings: aprosulate 300 μM
T6 construct: made in house
T6 sequence (P11362 158-246 limits assumed): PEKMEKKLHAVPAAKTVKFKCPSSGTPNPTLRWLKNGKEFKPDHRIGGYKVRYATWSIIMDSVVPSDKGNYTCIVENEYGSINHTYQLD
Experimental: Recombinant D(II) FGFR1 was purified from inclusion bodies and purified by affinity chromatography on heparin sepharose. A stock solution of D(II) FGFR1 (15 mg/mL; 1.1 mM) was diluted to 50 μM in assay buffer (50 mM Hepes, pH 7.5, 0.1 M NaCl). The assay volume was 10 μL and the concentration of 1,8-ANS was 250 μM.

[6] = test system: human urokinase-type plasminogen activator (u-PA); experiment: Miniaturized microplate thermal shift assay of urokinase; assay type: binding; settings: 5 μL; MOPS pH 7, NaCl, 1,8-ANS
Text: Another target molecule analyzed was human urokinase-type plasminogen activator (u-PA). U-PA enzymatically converts plasminogen into the active protease plasmin. U-PA is involved in tissue remodeling, cellular migration and metastases. The gene for u-PA was obtained from ATCC (Rockville, Md.) and modified to appropriately express active enzyme in E. coli. u-PA was cloned, overexpressed in E. coli, and purified using procedures similar to those described by Winkler et al. (Biochemistry 25:4041-4045 (1986)). […] The experiment was performed in the miniaturized format in 5 μL well volume. One μL of concentrated CMK-u-PA (13 g/L, 371.4 μM) was added to 4 μL of 62.5 mM MOPS, pH 7, 125 mM NaCl, and 250 μM 1,8-ANS, in multiple wells of a 96-well polycarbonate V-bottom microtiter plate. A thermal denaturation curve was generated as previously described for thrombin, aFGF, D(II)FGFR1, Factor D, and Factor Xa, by incremental heating of the microplate followed by a fluorescence reading after each temperature increase.

fluorescence signal relative to 1,8-ANS on unfolding of pyruvate kinase [1]: approximately 3.2 fold
signal relative to 1,8-ANS, average of 384 wells (thrombin [2]): 4.25 times
Compound: CN(C)c1ccc(-c2cnc(-c3ccc(S(=O)(=O)O)cc3)o2)cc1 [5-(4″-dimethylaminophenyl)-2-(4′-phenyl)oxazole sulfonate]

Compound: [Cl-].[Na+] [NaCl, sodium chloride]
ΔTm (human α-thrombin): about 12 °C
ΔTm (D(II) FGF receptor 1): about 5 °C

Compound: [Na+] [Na^+]
Kd (thrombin [3]): 30000 ± 3000 µM

Compound: Cc1ccc(C(=O)Nc2ccc(S(=O)(=O)O)c3cc(S(=O)(=O)O)cc(S(=O)(=O)O)c23)cc1NC(=O)c1cccc(NC(=O)Nc2cccc(C(=O)Nc3cc(C(=O)Nc4ccc(S(=O)(=O)O)c5cc(S(=O)(=O)O)cc(S(=O)(=O)O)c45)ccc3C)c2)c1 [Suramin, suramin]
ΔTm [4]: 13.0 °K
Tm [4]: 330.15 °K
ΔTm ([5]; relative to thrombin alone (329.15 °K)): 11.0 °K
affinity at Tm higher than the affinity of heparin 5000 ([5]; thermal shift assay, Table 4): 5700 fold
Tm ([5]; turbidity signal, 11 μM thrombin, ligand 40-102 μM): 340.15 °K

unfolding transition (Tm) in the presence of ligand (D(II) FGFR1): about 320 K
increase of the unfolding transition (D(II) FGFR1; D(II) FGFR1 50 μM, 10 μL): about 8 K
Compound: O=C(NCCCNC(=O)[C@H](OS(=O)(=O)O)[C@@H](OS(=O)(=O)O)[C@H](O[C@@H]1O[C@H](COS(=O)(=O)O)[C@H](OS(=O)(=O)O)[C@H](OS(=O)(=O)O)[C@H]1OS(=O)(=O)O)[C@@H](COS(=O)(=O)O)OS(=O)(=O)O)[C@H](OS(=O)(=O)O)[C@@H](OS(=O)(=O)O)[C@H](O[C@@H]1O[C@H](COS(=O)(=O)O)[C@H](OS(=O)(=O)O)[C@H](OS(=O)(=O)O)[C@H]1OS(=O)(=O)O)[C@@H](COS(=O)(=O)O)OS(=O)(=O)O [aprosulate]

Kd ([4]; equation (1), estimated ΔHu 60.0 kcal/mole, ΔCpu 0.95 kcal/mole-°K, read-out: Kd at Tm): 10.1 µM
Kd ([4]; estimate by equation (3), ΔHL −10.0 kcal/mole, read-out: Kd at 298° K Observed): 3.04 µM
ΔTm [4]: 5.0 °K
Tm [4]: 322.15 °K
Compound: EEEEEEEE

Compound: glu-gly-arg-chloromethylketone [CMK]
Tm of the CMK-u-PA complex [6]: 81 °C
